A short description of data set [1]: Thermal melts monitored by circular dichroism at 222 nm (coiled coil peptides). Particulars: surface designs on GCN4-p1, pH 7.0, 40 μM. Type of data set: physicochemical. A general note: Circular dichroism is widely used to follow secondary structure.
Procedure: A 1 mm pathlength cell was used and the temperature was controlled by a thermoelectric unit. Thermal melts were performed in the same buffer using two degree temperature increments with an averaging time of 10 s and an equilibration time of 90 s. […] Peptide concentrations were determined from the tyrosine absorbance at 275 nm (Huyghues-Despointes, et al., supra).
Data set [2] is described as follows: Size exclusion chromatography, oligomerization state (coiled coil peptides). Type of data set: physicochemical. Particulars: pH 7.0, 0° C.
Procedure: Size exclusion chromatography: Size exclusion chromatography was performed with a Synchropak GPC 100 column (25 cm by 4.6 mm) at pH 7.0 in 50 mM phosphate and 150 mM NaCl at 0° C. […] 10 μl injections of 1 mM peptide solution were chromatographed at 0.20 ml/min and monitored at 275 nm. Peptide concentrations were approximately 60 μM as estimated from peak heights. Samples were run in triplicate.
Size exclusion chromatography was performed with a PolyLC hydroxyethyl A column (20 cm×9 mm) at pH 7.0 in 50 mM phosphate and 150 mM NaCl at 0° C. […] 5 μl injections of ˜1 mM peptide solution were chromatographed at 0.50 ml/min and monitored at 214 nm. Samples were run in triplicate.
The nature of data set [3]: Circular dichroism spectra, ellipticity at 222 nm and helical content (coiled coil peptides). Type of data set: physicochemical. Conditions: 1° C., 40 μM.
Procedure: Circular dichroism CD spectra were measured on an Aviv 62DS spectrometer at pH 7.0 in 50 mM phosphate, 150 mM NaCl and 40 μM peptide. A 1 mm pathlength cell was used and the temperature was controlled by a thermoelectric unit.
Circular dichroism spectroscopy (CD) was used to assay the secondary structure and thermal stability of the designed peptides.
The secondary structures and thermal stabilities of the peptides were assessed by circular dichroism (CD) spectroscopy.
Data set [4] is classed as physicochemical. Conditions: pH 5.5.

No end group written: not given here.

With “Ac-RMAALEAKVAALLAKNAALEAEVAALKALVGER-NH2 [6F]”, the Tm in data set [1] is 73 °C.
As to “Ac-RMARLEAKVAALLAKNRRLEREVARLKALVGER-NH2 [6C]”, in data set [2], the “N (oligomerization state)” value is 2. Besides, the Tm in data set [1] worked out at 69 °C.
Taken in the same sequence, the figures for “Ac-RMEKLEDKVRELLRKNRRLEEEVRRLKELVGER-NH2 [6A]” were 2 and 71 °C.
Taken in the same sequence, the figures for “Ac-RMEKLEQKVKELLRKNERLEEEVERLKQLVGER-NH2 [6B]” were 2 and 72 °C.
As for “Ac-RMNTLERKVAKLLSKNANLEHEVNTLKQLVGER-NH2 [6E]”, the “[θ]222” value in data set [3] was −12000 deg cm^2/dmol. The “N (oligomerization state)” value in data set [2] was found to be 2. In addition, the Tm in data set [1] was 15 °C.
For “Ac-RMRELEEKVRRLLRKNEDLEREVKRLKELVGER-NH2 [6D]”, in data set [2], the “N (oligomerization state)” value turned out to be 2. Moreover, the Tm in data set [1] worked out at 71 °C.
The substance “MTWKYIINGKTLKGETTTEIVDAATFEKVWKQYLNDNGIDGEFTYDDATKTLTITE [α70]” displayed a limited solubility in data set [4] of 100 µM.

(Values after patent US6950754B2, “Apparatus and method for automated protein design” (The California Institute of Technology, priority 1997, dated 2005).)
